In the supplement of paper PMC5579334:

Legend:
[1] = tested on: ST8814; experiment: relative IC50 (inflection point of fitted dose-response curve, CellTiter-Glo viability, 72 h; top asymptote may be below 50% inhibition); higher = less potent
In short: (§1)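 MPNST cell lines and primary human Schwann cells (750–1000 cells per well) went into 384-well plates preprinted with each compound at five concentrations in 10-fold steps. Plates were incubated 72 h at 37 °C, 5% CO2. Viability was read as CellTiter-Glo ATP luminescence, scaled between vehicle and positive-control wells, with duplicates averaged where present. Percent inhibition is at the top concentration; drug sensitivity score and relative IC50 (censored at top concentration) come from four-parameter logistic fits.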

[2] = tested on: S462; experiment: as above
In short: as §1

[3] = tested on: HS-PSS; experiment: as above
In short: as §1

[4] = tested on: HS-Sch-2; experiment: as above
In short: as §1

[5] = tested on: S1507-2; experiment: as above
In short: as §1

[6] = tested on: STS26T; experiment: as above
In short: as §1

[7] = tested on: HSC1; experiment: as above
In short: as §1

[8] = tested on: YST-1; experiment: as above
In short: as §1

[9] = tested on: HSC2; experiment: as above
In short: as §1

[10] = tested on: ST8814; experiment: relative IC50 (inflection point of fitted dose-response curve, CellTox-Green cytotoxicity, 72 h; top asymptote may be below 50%); higher = less potent
In short: (§2)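 MPNST cell lines and primary human Schwann cells were incubated 72 h at 37 °C in 384-well plates holding five 10-fold compound dilutions. CellTox-Green was added before seeding at a final 1:1000 dilution and reported fluorescence from DNA released by disrupted cells. Signals were scaled to vehicle and positive-control wells, and cultures failing plate quality control were dropped. Drug sensitivity score and relative IC50 come from four-parameter logistic fits, with IC50 censored at the top concentration.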

[11] = tested on: HS-PSS; experiment: as above
In short: as §2

[12] = tested on: S1507-2; experiment: as above
In short: as §2

[13] = tested on: STS26T; experiment: as above
In short: as §2

[14] = tested on: HSC1; experiment: as above
In short: as §2

[15] = tested on: HSC2; experiment: as above
In short: as §2

Row | SMILES | relative IC50 [1] [µM] | relative IC50 [2] [µM] | relative IC50 [3] [µM] | relative IC50 [4] [µM] | relative IC50 [5] [µM] | relative IC50 [6] [µM] | relative IC50 [7] [µM] | relative IC50 [8] [µM] | relative IC50 [9] [µM] | relative IC50 [10] [µM] | relative IC50 [11] [µM] | relative IC50 [12] [µM] | relative IC50 [13] [µM] | relative IC50 [14] [µM] | relative IC50 [15] [µM]
1 | CNC(=O)c1cccc(-c2ccc3c(N4CCOC[C@@H]4C)nc(N4CCOC[C@@H]4C)nc3n2)c1 [AZD2014] | 0.654 | 0.364 | 0.505 | 0.366 | 0.335 | 0.401 | 0.306 | 0.119 | 0.322 | > 10 | > 10 | > 10 | > 10 | > 10 | > 10
2 | CN[C@@H]1C[C@H]2O[C@@](C)([C@@H]1OC)n1c3ccccc3c3c4c(c5c6ccccc6n2c5c31)C(=O)N[C@H]4O [UCN-01] | 0.0519 | 0.0295 | 0.121 | 0.0633 | 0.0193 | 0.0443 | 0.0448 | 0.0859 | 0.0248 | 0.257 | 2.13 | 0.159 | 0.0249 | 0.459 | 0.158
3 | Oc1ncnc2[nH]ncc12 [Allopurinol] | > 10 | > 10 | > 10 | > 10 | > 10 | > 10 | > 10 | > 10 | > 10 | > 10 | > 10 | > 10 | > 10 | > 10 | > 10
4 | CC(=O)O[C@H]1C(=O)[C@@]2(C)[C@H]([C@H](OC(=O)c3ccccc3)[C@]3(O)C[C@H](OC(=O)[C@H](O)[C@@H](NC(=O)c4ccccc4)c4ccccc4)C(C)=C1C3(C)C)[C@]1(OC(C)=O)CO[C@@H]1C[C@@H]2O [Paclitaxel] | 0.0217 | 0.00384 | 0.00692 | 0.00871 | 0.0185 | 0.00463 | 0.00818 | 0.00383 | 0.00836 | 0.025 | > 1 | 0.0423 | 0.00172 | 0.0244 | 0.019
5 | O=C(Nc1c[nH]nc1-c1nc2ccc(CN3CCOCC3)cc2[nH]1)NC1CC1 [AT9283] | 0.0602 | 0.122 | 0.178 | 0.332 | 0.0946 | 0.172 | 0.0831 | 0.139 | 0.0796 | 0.0319 | > 1 | 0.167 | 0.145 | 0.231 | 0.276
6 | CCCc1cc(C)[nH]c(=O)c1CNC(=O)c1cc(-c2ccnc(N3CCN(C)CC3)c2)cc2c1cnn2C(C)C [GSK343] | 3.2 | 3.25 | 2.97 | 3.81 | 2.69 | 3.82 | 1.52 | 4.35 | 1.81 | 3.1 | 3.09 | 2.31 | 2.66 | > 10 | > 10
7 | O=C(CCCCCCC(=O)Nc1ccccc1)NO [Vorinostat] | 1.69 | 2.09 | 2.82 | 1.77 | 1.68 | 2.25 | 1.31 | 0.687 | 1.57 | 3.15 | 2.45 | 2.66 | 2.57 | 3.78 | 3.43
8 | C=CC(=O)Nc1cc2c(Nc3ccc(F)c(Cl)c3)ncnc2cc1OCCCN1CCOCC1 [Canertinib] | 1.87 | 2.78 | 2.44 | 2.53 | 1.56 | 2.22 | 1.61 | 3.18 | 2.03 | 2.97 | 2.42 | 2.41 | 2.7 | 2.16 | 2
9 | Cn1cc(CNCC2CCN(c3ncc(C(=O)NO)cn3)CC2)c2ccccc21 [Quisinostat] | 0.0166 | 0.0204 | 0.0428 | 0.0455 | 0.0183 | 0.0434 | 0.0345 | 0.00858 | 0.0568 | 0.0561 | 0.131 | 0.0448 | 0.105 | 0.208 | 0.226
10 | CC(C)C[C@H](NC(=O)[C@H](Cc1ccccc1)NC(=O)c1cnccn1)B(O)O [Bortezomib] | 0.0063 | 0.00587 | 0.0512 | 0.00347 | 0.0101 | 0.011 | 0.00732 | 0.0101 | 0.00664 | 0.00988 | 0.123 | 0.00894 | 0.0112 | 0.0226 | 0.0214
11 | O=[N+]([O-])c1ccc2c(c1)S(=O)(=O)C=C2 [Stattic] | 2.41 | 4.99 | 1.39 | 1.42 | 9.57 | 2.99 | 1.88 | 1.74 | 3.04 | 4.72 | 2.87 | 15.9 | 2.27 | 2.45 | 7.9
12 | CC(=O)[C@]1(O)Cc2c(O)c3c(c(O)c2[C@@H](O[C@H]2C[C@H](N)[C@H](O)[C@H](C)O2)C1)C(=O)c1ccccc1C3=O [Idarubicin] | 0.0249 | 0.00947 | 0.103 | 0.0397 | 0.0256 | 0.0144 | 0.0197 | 0.00854 | 0.0226 | 0.027 | 0.162 | 0.0541 | 0.0108 | 0.107 | 0.204
13 | O=C(Cc1ccc(-c2ccc(OCCN3CCOCC3)cc2)cn1)NCc1ccccc1 [KX2-391] | 0.0364 | 0.0343 | 0.163 | 0.0305 | 0.0467 | 0.0294 | 0.0523 | 0.0491 | 0.073 | 0.0338 | > 10 | 0.0302 | 0.0236 | 0.112 | 0.139
